# Reference: patent US10517889B2, “Modulators of SMAD7 expression” (Ionis Pharmaceuticals, Inc., priority 2017, dated 2019)
# Strand notation (5' to 3'): a small letter for the sugar, then the base; units joined by * are phosphorothioate-linked, units joined directly phosphodiester-linked; [ ] holds rarer units or linkages, { } end groups; capitals alone tell only the bases. k = constrained ethyl (cEt); [5mC] = 5-methylcytosine; d = 2'-deoxy (DNA)
# Test system: human SMAD7 mRNA
# Assay: Antisense inhibition of human SMAD7 mRNA expression in Hep3B cells by 3-10-3 cEt gapmers, 10,000 nM, electroporation (Example 2)
# Type: cell-based
# Conditions: Hep3B cells, 10,000 nM antisense oligonucleotide, electroporation, approximately 24 hours, RT-PCR primer probe set RTS5062, relative to untreated control cells
# Summary of the method: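 SMAD7 mRNA was measured by real-time PCR (RTS5062) with RiboGreen total-RNA normalization, about 24 h after 10,000 nM gapmer was delivered by electroporation into Hep3B cells at 20,000 per well. Gapmers were 16-mer 3-10-3 cEt, fully phosphorothioate; values are % inhibition versus untreated controls.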
row,Substance,% Inhibition [%]
1,798914 (kG*kT*k[5mC]*d[5mC]*d[5mC]*d[5mC]*dT*d[5mC]*d[5mC]*dG*d[5mC]*dA*d[5mC]*kG*k[5mC]*kG; antisense) [compound 798914],56
2,799930 (antisense kT*k[5mC]*kT*dT*dT*dT*dA*dT*d[5mC]*dA*d[5mC]*dT*dG*kT*k[5mC]*kA) [compound 799930],8
3,799952 (antisense k[5mC]*kT*k[5mC]*dT*dA*dA*dG*dT*dG*dG*d[5mC]*dT*d[5mC]*kA*kT*kG) [compound 799952],30
4,799975 (kT*k[5mC]*kT*dT*d[5mC]*dA*dG*dG*dG*dA*d[5mC]*dA*dA*kG*k[5mC]*k[5mC]; antisense) [compound 799975],38
5,799900 (antisense k[5mC]*kA*kA*dG*dT*d[5mC]*dT*d[5mC]*dT*dT*dA*d[5mC]*d[5mC]*kT*k[5mC]*kA) [compound 799900],51
6,799994 (kA*k[5mC]*kT*dT*dG*dG*dA*dT*dA*dA*dT*dG*dA*kA*kG*kT; antisense) [compound 799994],2

# Same assay, conditions: Hep3B cells, electroporation with 10,000 nM antisense oligonucleotide, approximately 24 hours, RTS5062, percent inhibition of SMAD7 mRNA relative to untreated control cells
row,Substance,% Inhibition [%]
1,799702 (antisense k[5mC]*kA*kT*d[5mC]*dA*d[5mC]*d[5mC]*dA*d[5mC]*dT*d[5mC]*dT*dA*k[5mC]*kA*kG) [compound 799702],43
2,799822 (antisense k[5mC]*kA*k[5mC]*dG*dA*dT*d[5mC]*d[5mC]*dT*dG*dG*dG*d[5mC]*kT*k[5mC]*kT) [compound 799822],0
3,799525 (antisense kA*kG*kG*dT*dT*dT*dG*dG*dG*dT*dT*dG*dG*kA*k[5mC]*kT) [compound 799525],8
4,799664 (antisense kG*k[5mC]*k[5mC]*dA*dG*d[5mC]*dA*dA*dG*dG*dA*dT*d[5mC]*kA*kA*kA) [compound 799664],8

# Same assay, conditions: Hep3B cells, electroporation with 10,000 nM antisense oligonucleotide, approximately 24 hours, SMAD7 mRNA by RT-PCR (RTS5062), relative to untreated control cells
row,Substance,% Inhibition [%]
1,799408 (antisense kT*kT*kA*dA*dA*dT*d[5mC]*d[5mC]*dT*dG*dA*dG*dA*kA*k[5mC]*kA) [compound 799408],27
2,830016 (antisense kG*kG*kT*dG*d[5mC]*d[5mC]*d[5mC]*dA*dA*d[5mC]*d[5mC]*d[5mC]*dT*kT*k[5mC]*kA) [compound 830016],32
3,800002 (k[5mC]*k[5mC]*k[5mC]*d[5mC]*dA*dA*dG*dA*dT*dT*d[5mC]*d[5mC]*dA*kT*kT*kT; antisense) [compound 800002],0
4,798844 (kA*k[5mC]*k[5mC]*dT*dT*d[5mC]*dT*dG*d[5mC]*dA*d[5mC]*d[5mC]*dA*kG*k[5mC]*kT; antisense) [compound 798844],30
5,798720 (antisense kG*kG*k[5mC]*dA*dG*d[5mC]*dA*dT*d[5mC]*d[5mC]*dA*dG*d[5mC]*k[5mC]*k[5mC]*kT) [compound 798720],25
6,830063 (kT*k[5mC]*k[5mC]*d[5mC]*dT*dA*d[5mC]*d[5mC]*dA*d[5mC]*d[5mC]*d[5mC]*d[5mC]*kT*kG*kT; antisense) [compound 830063],37
7,830117 (k[5mC]*k[5mC]*kA*d[5mC]*d[5mC]*d[5mC]*dT*dA*dA*dA*d[5mC]*dT*dG*kA*kG*k[5mC]; antisense) [compound 830117],5
8,798770 (kA*kG*kG*dA*dA*dT*dG*d[5mC]*d[5mC]*dT*dG*dA*dG*kA*kT*k[5mC]; antisense) [compound 798770],47
9,798757 (kG*k[5mC]*kG*d[5mC]*dA*dG*dG*d[5mC]*dT*dG*d[5mC]*dG*d[5mC]*kG*k[5mC]*k[5mC]; antisense) [compound 798757],0
10,800003 (kA*kG*kA*dA*d[5mC]*dA*d[5mC]*dG*dG*dG*d[5mC]*dA*d[5mC]*kG*k[5mC]*kG; antisense) [compound 800003],24
11,799866 (k[5mC]*kA*k[5mC]*d[5mC]*dG*d[5mC]*dG*d[5mC]*dA*dG*dG*dG*dA*k[5mC]*kA*kG; antisense) [compound 799866],0

# Same assay, conditions: Hep3B cells, electroporation with 10,000 nM antisense oligonucleotide, approximately 24 hours, primer probe set RTS5062, relative to untreated control cells
Substance,% inhibition of SMAD7 mRNA expression [%],% Inhibition [%]
799443 (antisense kT*k[5mC]*kA*dT*dG*d[5mC]*dT*dG*dA*dT*dT*dT*dT*kA*kA*kA) [compound 799443],24,–
799215 (kA*kG*k[5mC]*dA*dA*dA*dG*dT*dG*d[5mC]*dA*dT*d[5mC]*kT*kT*kT; antisense) [compound 799215],0,–
799097 (antisense kA*kA*kA*d[5mC]*d[5mC]*dT*dG*dA*dT*dG*dT*d[5mC]*dA*k[5mC]*k[5mC]*kA) [compound 799097],–,39
799225 (kA*k[5mC]*kA*d[5mC]*d[5mC]*dA*dA*dT*d[5mC]*dT*dT*dG*dT*kG*kT*kT; antisense) [compound 799225],–,4
799076 (antisense kA*kG*k[5mC]*dA*dG*dA*dT*dG*dG*d[5mC]*d[5mC]*dA*dA*kA*kA*kA) [compound 799076],–,34
799021 (kG*kG*kA*d[5mC]*dT*dG*d[5mC]*dA*dA*dA*d[5mC]*d[5mC]*dT*k[5mC]*kT*k[5mC]; antisense) [compound 799021],–,62
799379 (antisense kT*kT*kT*dG*dA*dT*dA*dG*dT*d[5mC]*d[5mC]*d[5mC]*dT*kA*kT*kG) [compound 799379],0,–
799247 (antisense kA*k[5mC]*kG*dA*d[5mC]*dA*dG*dT*dA*dT*d[5mC]*dT*dG*kG*kG*k[5mC]) [compound 799247],61,–
799155 (antisense kA*kG*kA*dA*dG*dA*dG*dT*dT*dA*dG*dG*dT*kG*kT*k[5mC]) [compound 799155],–,32
798747 (antisense k[5mC]*kG*kG*d[5mC]*d[5mC]*dT*dG*dG*dA*dG*d[5mC]*dA*dG*k[5mC]*kA*kG) [compound 798747],14,–
799028 (kA*kG*kA*d[5mC]*dA*d[5mC]*d[5mC]*dG*d[5mC]*dT*dT*dG*dG*kG*kA*k[5mC]; antisense) [compound 799028],37,–
799093 (antisense kG*kT*k[5mC]*dA*d[5mC]*d[5mC]*dA*dG*dG*dG*d[5mC]*dA*dG*kG*k[5mC]*kA) [compound 799093],–,47
798660 (kT*kG*k[5mC]*d[5mC]*d[5mC]*d[5mC]*dA*d[5mC]*d[5mC]*d[5mC]*d[5mC]*dG*d[5mC]*kG*k[5mC]*kG; antisense) [compound 798660],38,–

# Same assay, conditions: Hep3B cells, electroporation, 10,000 nM antisense oligonucleotide, approximately 24 hours, RTS5062, relative to untreated control cells
row,Substance,% inhibition of SMAD7 mRNA expression [%]
1,799302 (antisense kA*kA*kA*d[5mC]*d[5mC]*dA*d[5mC]*dA*d[5mC]*dA*dT*dT*d[5mC]*k[5mC]*kA*kA) [compound 799302],39
2,799621 (kT*kT*kT*d[5mC]*dA*d[5mC]*dT*dG*d[5mC]*dA*dA*dG*dT*k[5mC]*k[5mC]*k[5mC]; antisense) [compound 799621],49
3,799818 (antisense k[5mC]*kA*k[5mC]*dT*dG*dA*dT*dA*dA*d[5mC]*dT*dA*dA*k[5mC]*kT*kT) [compound 799818],24
4,772786 (kG*kA*k[5mC]*d[5mC]*dA*d[5mC]*dA*dG*d[5mC]*dA*d[5mC]*d[5mC]*dT*kT*kG*kT; antisense) [compound 772786],19
5,799594 (kT*kG*kA*dA*d[5mC]*dG*dG*dA*dA*dA*dG*dA*dA*kG*kA*kA; antisense) [compound 799594],35
6,799519 (antisense kA*kA*k[5mC]*dT*dT*dA*dA*dG*dT*dA*dG*dA*dG*k[5mC]*kA*kA) [compound 799519],44
7,799578 (kA*k[5mC]*k[5mC]*dT*dT*d[5mC]*d[5mC]*dG*dA*dA*dA*dG*dG*kA*k[5mC]*k[5mC]; antisense) [compound 799578],76
8,799319 (antisense kT*kG*k[5mC]*dT*dG*dT*dG*dG*dA*dT*dT*dT*dG*kA*kA*kA) [compound 799319],0
9,799773 (k[5mC]*kG*k[5mC]*dT*dA*dG*dG*dT*d[5mC]*dA*d[5mC]*dA*d[5mC]*kT*k[5mC]*kA; antisense) [compound 799773],43

# Same assay, conditions: SMAD7 mRNA, Hep3B cells, 10,000 nM antisense oligonucleotide, electroporation, approximately 24 hours, primer probe set RTS5062, relative to untreated control cells
row,Substance,% Inhibition [%]
1,829737 (antisense kA*kG*kG*dA*dG*d[5mC]*dG*dA*dA*d[5mC]*dA*dT*dG*kA*k[5mC]*k[5mC]) [compound 829737],52
2,772591 (kA*kG*kT*dG*dT*dG*dA*d[5mC]*d[5mC]*dG*dA*dT*d[5mC]*k[5mC]*k[5mC]*k[5mC]; antisense) [compound 772591],60
3,829763 (antisense kG*kT*kT*dT*d[5mC]*dT*dT*dG*dA*dG*d[5mC]*dA*d[5mC]*k[5mC]*kG*kA) [compound 829763],65

# Same assay, conditions: SMAD7 mRNA, Hep3B cells, electroporation with 10,000 nM antisense oligonucleotide, approximately 24 hours, primer probe set RTS5062, relative to untreated control cells
row,Substance,% Inhibition [%]
1,829948 (k[5mC]*kG*kG*dG*d[5mC]*dA*dG*d[5mC]*d[5mC]*dA*dG*dT*dT*kA*kA*kT; antisense) [compound 829948],43
2,829974 (kA*kA*kA*dA*dG*dA*dG*dG*d[5mC]*d[5mC]*dG*d[5mC]*d[5mC]*kT*kG*kG; antisense) [compound 829974],27
3,829919 (antisense k[5mC]*kG*kA*dG*dT*dG*dT*dA*dT*dG*dA*dG*dT*kT*kG*kT) [compound 829919],47
